Assay [1] deals with hyperlipidaemia caused by TRITON 1339. The assay can be described thus: test for the hyperlipidaemia caused by TRITON 1339. The note with it: rats, Triton test after oral administration for six days, 0.5 millimol per kilogram; for HDL cholesterol: Control 0.7 ± 0.1, Triton 0.8 ± 0.1; for Triglycerides: Control 1 ± 0.3, Triton 10 ± 7; for Total cholesterol: Control 2 ± 0.15, Triton 9 ± 3; for Total lipids: Control 3.5 ± 0.4, Triton 20 ± 10. Format: in vivo. The method, then:
The Table below summarizes the results of the pharmacological studies carried out especially by means of the test for the hyperlipidaemia caused by TRITON 1339. The experimental protocol was that published by J. C. […] et al. (Gaz. Med. France, 3rd inter. coll. 1982, Dijon, 18-22). The tests are performed on groups of 7 rats weighing from 280 to 290 g. The Triton test is carried out after oral administration for six days at a rate of 0.5 millimol per kilogram of body weight. The following lipid parameters are measured: total cholesterol, triglycerides, total lipids and HDL cholesterol.

The target in assay [2] is T1, 3-hydroxy-3-methylglutaryl-CoA reductase (Rattus norvegicus, UniProt P51639).
T1 construct: from tissue
T1 sequence (P51639 1-887): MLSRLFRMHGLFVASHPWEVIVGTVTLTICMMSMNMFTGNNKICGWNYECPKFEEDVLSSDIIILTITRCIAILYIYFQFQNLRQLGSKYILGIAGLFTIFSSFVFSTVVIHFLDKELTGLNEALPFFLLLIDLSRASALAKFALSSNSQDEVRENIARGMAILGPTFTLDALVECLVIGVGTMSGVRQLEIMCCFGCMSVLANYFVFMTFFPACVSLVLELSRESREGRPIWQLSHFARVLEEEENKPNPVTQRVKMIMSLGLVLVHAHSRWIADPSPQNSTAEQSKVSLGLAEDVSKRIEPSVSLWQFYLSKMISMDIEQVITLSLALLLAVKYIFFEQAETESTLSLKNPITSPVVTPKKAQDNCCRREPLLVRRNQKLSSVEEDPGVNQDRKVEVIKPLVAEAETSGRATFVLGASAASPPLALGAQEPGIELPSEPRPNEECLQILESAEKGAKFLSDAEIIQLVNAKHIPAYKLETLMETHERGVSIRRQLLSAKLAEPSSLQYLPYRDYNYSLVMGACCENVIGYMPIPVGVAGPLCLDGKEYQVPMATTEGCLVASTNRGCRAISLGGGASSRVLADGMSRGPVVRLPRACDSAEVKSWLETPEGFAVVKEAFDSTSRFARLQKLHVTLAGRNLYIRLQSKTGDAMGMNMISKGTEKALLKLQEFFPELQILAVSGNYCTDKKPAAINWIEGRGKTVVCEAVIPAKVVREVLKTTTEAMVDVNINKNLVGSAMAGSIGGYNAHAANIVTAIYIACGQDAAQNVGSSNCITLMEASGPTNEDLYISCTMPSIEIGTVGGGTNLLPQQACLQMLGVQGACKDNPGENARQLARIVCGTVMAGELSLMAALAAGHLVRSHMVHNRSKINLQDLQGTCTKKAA
Description: inhibition of 3-hydroxy-3-methylglutaryl-CoA reductase activity (method of Kuroda et al.). Format: biochemical. As to conditions: concentration for 50% inhibition of 3-hydroxy-3-methylglutaryl-CoA reductase activity. The method, then: The biosynthesis of cholesterol in an isolated enzymatic system or in a cell culture from organs removed from experimental animals is inhibited by limiting the activity of the enzyme 3-hydroxy-3-methylglutaryl-CoA reductase.
The inhibitory activity of the products according to the present invention was determined by the method of Kuroda et al. (Biochemica et Biophysica Acta, vol. 486, pp. 70-81 (1977)), which is a modification of the method of Shapiro et al. (Analytical Biochemistry, vol. 31, pp. 383-390 (1969)). The results are summarized in Table II, where IC50 is the concentration of product in the experimental medium which is necessary to achieve a 50% inhibition of the 3-hydroxy-3-methylglutaryl-CoA reductase activity, expressed in nanomol.

In a further assay the test system is HMG-CoA red. The assay can be described thus: HMG-CoA red. activity "ex vivo" in liver microsomes after chronic intraperitoneal administration to rats. Also on record: Mevalonate formed: unit not given here. As to conditions: 50 mg/kg for 6 days; for Mevalonate formed: Control 17; for % inhibition: inhibition of HMG-CoA red. activity, Control 0. The method, then: The inhibitory activity of the products according to the present invention was determined by the method of Kuroda et al. (Biochemica et Biophysica Acta, vol. 486, pp. 70-81 (1977)), which is a modification of the method of Shapiro et al. (Analytical Biochemistry, vol. 31, pp. 383-390 (1969)). […] The doses administered were 50 mg/kg for 6 days; six rats were used in each series; they are sacrificed without anaesthesia and the liver microsomes are isolated for the assay, which is performed according to the above-mentioned protocol.

5 compounds from patent US5310757A, “3,3,5-trimethylcyclohexyl 2-methylpropionate derivatives, their method of preparation and therapeutic compositions in which they are present” (Panmedica, priority 1989, dated 1994) can be followed below.

Molecules are shown by their SMILES.

Regarding `C[C@@H]1C[C@H](OC(=O)C(C)(C)Oc2ccc(C(=O)c3ccc(Cl)cc3)cc2)CC(C)(C)C1` (relative stereo) [Example 2, (CIS) 3,3,5-TRIMETHYLCYCLOHEXYL 2-(4-(4-CHLOROBENZOYL)PHENOXY)-2-METHYLPROPIONATE], in assay [1], the HDL cholesterol was 2.1 ± 0.5 mmol/L, the Triglycerides amounted to 0.5 ± 0.15 mmol/L, the Total cholesterol stood at 3.0 ± 0.4 mmol/L and the Total lipids worked out at 3.6 ± 0.2 g/L. In addition, the IC50 (in general, the midpoint of a concentration-inhibition curve) in assay [2] was 37.2 nM. In addition, in the assay on HMG-CoA red., the Mevalonate formed is given as 7.3 and the % inhibition (usually how much of the control response was suppressed) was found to be 57%.
As for `C[C@H]1C[C@H](OC(=O)C(C)(C)Oc2ccc(CCNC(=O)c3ccc(Cl)cc3)cc2)CC(C)(C)C1` (relative stereo) [Example 3, (TRANS) 3,3,5-TRIMETHYLCYCLOHEXYL 2-(4-(2-(4-CHLOROBENZAMIDO)ETHYL)PHENOXY)-2-METHYLPROPIONATE], in assay [1], the HDL cholesterol was 1.6 ± 0.4 mmol/L, the Triglycerides is 1.2 ± 0.4 mmol/L, the Total cholesterol is 1.2 ± 0.7 mmol/L and the Total lipids came to 3.8 ± 0.5 g/L. In assay [2], this compound gave an IC50 of 39 nM.
With `C[C@@H]1C[C@H](OC(=O)C(C)(C)Oc2ccc(CCNC(=O)c3ccc(Cl)cc3)cc2)CC(C)(C)C1` (relative stereo) [Example 4, (CIS) 3,3,5-TRIMETHYLCYCLOHEXYL 2-(4-(2-(4-CHLOROBENZAMIDO)ETHYL)PHENOXY)-2-METHYLPROPIONATE], in assay [1], the HDL cholesterol worked out at 2.2 ± 0.3 mmol/L, the Triglycerides was 2.5 ± 0.5 mmol/L, the Total cholesterol stood at 2.6 ± 0.3 mmol/L and the Total lipids turned out to be 4.8 ± 0.7 g/L. Also, the IC50 in assay [2] is 25.6 nM.
In assay [1], `Cc1ccc(C)c(OCCCC(C)(C)C(=O)O[C@H]2C[C@@H](C)CC(C)(C)C2)c1` (relative stereo) [Example 5, (CIS) 3,3,5-TRIMETHYLCYCLOHEXYL 2-(3-(2,5-DIMETHYLPHENOXY)PROPYL)-2-METHYLPROPIONATE] had an HDL cholesterol of 1.0 ± 0.3 mmol/L, a Triglycerides of 2.0 ± 0.3 mmol/L, a Total cholesterol of 5.0 ± 0.8 mmol/L and a Total lipids of 3.0 ± 0.4 g/L. The compound also yielded an IC50 in assay [2] of 30.1 nM. Also, in the assay on HMG-CoA red., the Mevalonate formed is 6.71 and the “% inhibition” value was 60%.
In assay [1], `C[C@H]1C[C@H](OC(=O)C(C)(C)Oc2ccc(-c3ccccc3)cc2)CC(C)(C)C1` (relative stereo) [Example 7, (TRANS) 3,3,5-TRIMETHYLCYCLOHEXYL 2-(4-PHENYLPHENOXY)-2-METHYLPROPIONATE] came in with an HDL cholesterol of 1.5 ± 0.4 mmol/L, a Triglycerides of 1.1 ± 0.5 mmol/L, a Total cholesterol of 2.2 ± 0.4 mmol/L and a Total lipids of 3.0 ± 0.5 g/L. The IC50 in assay [2] is 42.5 nM.
